The NIST ThermoML archive (doi:10.1021/je060271a)

Conditions: 323.15 K, Liquid, Vibrating tube method

CCCC(=O)OCC(COC(=O)CCC)(COC(=O)CCC)COC(=O)CCC [pentaerythritol tetrabutyrate]
Conditions | mass density [kg/m3]
6544.6 kPa | 1029.7
6573.1 kPa | 1029.6
6601.4 kPa | 1029.8
6630.4 kPa | 1029.8
6664.6 kPa | 1029.8
6693.3 kPa | 1029.7
6722.9 kPa | 1029.8
6752.8 kPa | 1029.7
6788.3 kPa | 1029.8
6819.1 kPa | 1029.9
6850.5 kPa | 1029.9
6881.6 kPa | 1030
6918.6 kPa | 1030
6950.2 kPa | 1029.9
6982.9 kPa | 1030
7021.5 kPa | 1030
7051.8 kPa | 1029.9
7078.5 kPa | 1030
7111.5 kPa | 1030.1
7138.8 kPa | 1030.1
7165.9 kPa | 1030.2
7198.9 kPa | 1030.1
7227.1 kPa | 1030.2
7255.4 kPa | 1030.1
7284.6 kPa | 1030.2
7319.5 kPa | 1030.1
7348.8 kPa | 1030.3
7378.7 kPa | 1030.3
7408.9 kPa | 1030.2
7446.2 kPa | 1030.3
7476.6 kPa | 1030.3
7507.3 kPa | 1030.3
7538.2 kPa | 1030.3
7569.8 kPa | 1030.5
7607.4 kPa | 1030.5
7638.7 kPa | 1030.6
7671.1 kPa | 1030.6
7709.5 kPa | 1030.4
7742.2 kPa | 1030.6
7775.2 kPa | 1030.6
7809.6 kPa | 1030.6
7843.9 kPa | 1030.6
7885.3 kPa | 1030.6
7920.5 kPa | 1030.6
7953.8 kPa | 1030.7
7983 kPa | 1030.8
8018.4 kPa | 1030.7
8049.1 kPa | 1030.6
8080.2 kPa | 1030.7
8117.6 kPa | 1030.9
8149.2 kPa | 1030.7
8176.4 kPa | 1030.7
8203 kPa | 1030.9
8233.4 kPa | 1031
8258.9 kPa | 1030.8
8285.5 kPa | 1030.9
8312 kPa | 1031.1
8343.3 kPa | 1030.9
8369.3 kPa | 1030.9
8401.7 kPa | 1031.1
8428.3 kPa | 1031.1
8455.7 kPa | 1031
8482.6 kPa | 1031.1
8515.8 kPa | 1031.2
8543.4 kPa | 1031.1
8571.8 kPa | 1031.1
8605.3 kPa | 1031.2
8634.6 kPa | 1031.2
8664.9 kPa | 1031.3
8693.6 kPa | 1031.2
8722 kPa | 1031.2
8757 kPa | 1031.2
8785.7 kPa | 1031.2
